In one data set the test system is cultured rat hepatocytes. As to conditions: cited from earlier work.
Another data set deals with isolated rat hepatocytes. Nature of the data set: Anti hepatotoxic potential, β-galactosamine challenged isolated rat hepatocytes. The data set is classed as cell-based. As to conditions: 0.5 mM. The method, then: The liver was perfused through the portal vein with 30-50 ml of cold sodium citrate (0.027M) in calcium free lockets solution. During the perfusion, the liver gets blanched and fully distended. Perfusion is generally completed within 5 minutes of anaesthetizing the animal. The perfused liver is excised and washed well with the perfusion fluid and pressed in folds of sterile filter paper, weighed and cut into several small pieces and with a pair of scissors. A known wet weight of the liver (usually between 2-6 gm) was transferred with 5 volume of cold 0.25M sucrose into a sterile glass homogenizer and finely grounded. The cell suspension was filtered once, without application of pressure through 200-mesh brass gauze to remove strands of connective tissue and clumps of cells. The suspension contained some cell debris and blood cells at this stage, which were removed by centrifugation at a low speed (100-200 g) for 2 minutes. After removal of the supernatant, the cell sediment was resuspended in a known volume of the minimum essential medium for further studies. […] The cells, which have not taken the dye, are live cells, which are counted. […] Four sets of isolated rat hepatocyte cultures were put up. […] Set III with 0.5 mM concentration of β-galactosamine, a known hepatotoxic agent and set IV was treated with β-galactosamine and then protected with the formulation of the present invention. […]

Data on 3 compounds can be found in patent US6589570B1, “Pharmaceutical formulation useful for the treatment of hepatitis B, hepatitis C and other viral infections of the liver and a process for its preparation” (priority 1999, dated 2003).

Structures are written as SMILES.

For the compound `COC[C@@H]1Cc2cc(OC)c3c(c2[C@H](c2ccc(OC)c(OC)c2)[C@H]1COC)OCO3` [Hypo phyllanthin], the “CCl4 or galatosamine induced cytotoxicity to cultured rat hepatocytes” value in the data set with cultured rat hepatocytes is “reduced”.
As for `COC[C@@H](Cc1ccc(OC)c(OC)c1)[C@@H](COC)Cc1ccc(OC)c(OC)c1` [Phyllanthin], in the data set on cultured rat hepatocytes, the “CCl4 or galatosamine induced cytotoxicity to cultured rat hepatocytes” value is on record as “reduced”.
As for `N[C@@H]1[C@@H](O)[C@@H](O)[C@@H](CO)O[C@H]1O` [β-galactosamine], in the data set on isolated rat hepatocytes, the “hepatotoxicity on isolated rat hepatocytes” value is “profound hepatotoxic chemical”.
